# Measurements reported in PMC9281569, “Two HCN4 Channels Play Functional Roles in the Zebrafish Heart” (Frontiers in Physiology, 2022).
# Values joined by “and” are separate entries in the source; they are usually repeats but may differ in a detail not shown here. Equal values may be shown once. Where a name gives a salt, the structure may show the parent alone. Read-outs that look alike come from different tables or passages of the source.
# Columns and labels:
# DrHCN4 = target: T1, DrHCN4 (Danio rerio, UniProt A0A8N7UQR8); test: Inhibition of HCN4 currents in Xenopus oocytes, two-electrode voltage clamp; assay type: cell-based, zebrafish (Danio rerio); conditions: holding −30 mV, hyperpolarized to −120 mV for 2 s, room temperature
# T1 sequence (A0A8N7UQR8 1-1140): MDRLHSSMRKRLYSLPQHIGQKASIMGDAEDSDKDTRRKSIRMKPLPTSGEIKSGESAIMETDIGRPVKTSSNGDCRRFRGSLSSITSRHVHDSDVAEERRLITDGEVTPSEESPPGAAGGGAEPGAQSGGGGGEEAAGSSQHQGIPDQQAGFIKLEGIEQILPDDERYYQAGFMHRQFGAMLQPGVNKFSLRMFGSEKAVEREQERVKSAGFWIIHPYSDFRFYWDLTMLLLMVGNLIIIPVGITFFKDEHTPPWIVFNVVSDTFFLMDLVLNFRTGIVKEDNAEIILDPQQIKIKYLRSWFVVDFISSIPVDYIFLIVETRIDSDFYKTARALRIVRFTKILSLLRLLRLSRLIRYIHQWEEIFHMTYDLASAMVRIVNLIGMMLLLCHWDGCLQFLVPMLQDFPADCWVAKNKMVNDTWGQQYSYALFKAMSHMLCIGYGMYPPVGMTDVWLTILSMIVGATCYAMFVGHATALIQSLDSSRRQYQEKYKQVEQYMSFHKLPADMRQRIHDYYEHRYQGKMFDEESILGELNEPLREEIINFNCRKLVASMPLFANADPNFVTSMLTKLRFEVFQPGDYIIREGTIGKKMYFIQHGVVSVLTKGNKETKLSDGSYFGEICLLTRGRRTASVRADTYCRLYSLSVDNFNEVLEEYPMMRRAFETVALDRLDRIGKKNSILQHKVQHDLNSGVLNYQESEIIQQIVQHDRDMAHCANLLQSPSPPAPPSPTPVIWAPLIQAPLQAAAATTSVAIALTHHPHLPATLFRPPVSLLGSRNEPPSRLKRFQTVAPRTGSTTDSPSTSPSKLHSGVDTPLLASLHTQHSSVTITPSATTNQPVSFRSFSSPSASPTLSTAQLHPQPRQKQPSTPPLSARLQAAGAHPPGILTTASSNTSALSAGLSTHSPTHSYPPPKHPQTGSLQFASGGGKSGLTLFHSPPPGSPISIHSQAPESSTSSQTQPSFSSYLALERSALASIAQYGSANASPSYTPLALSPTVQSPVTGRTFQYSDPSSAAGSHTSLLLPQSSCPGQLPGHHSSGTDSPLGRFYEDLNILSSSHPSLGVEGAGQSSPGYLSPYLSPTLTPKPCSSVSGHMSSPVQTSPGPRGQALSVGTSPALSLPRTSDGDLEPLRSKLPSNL
# [1] = test system: Isolated adult zebrafish heart; parameters: method as in Stoyek et al., 2022; conditions: bath application; ref Stoyek et al., 2022; cited from earlier work
# patients = test system: patients; parameters: method as in Swedberg et al., 2010; conditions: administration to patients; ref Swedberg et al., 2010; cited from earlier work
# [2] = DrHCN4 in Xenopus oocytes, read-out: IC50
Structure (SMILES),IC50 (DrHCN4; [2]) [µM],"IC50 (DrHCN4; DrHCN4 in Xenopus oocytes, listed as Cs^+, read-out: IC50) [µM]",Block of isolated adult zebrafish heart [1] [%],"IC50 (DrHCN4; IC50, DrHCN4 in Xenopus oocytes)",Reduction of heart rate (patients)
CCN(c1ccccc1)c1cc(=NC)n(C)c(C)n1.Cl [ZD7288],699 ± 216,,,,
"[Cl-].[Cs+] [Cesium ion, Cesium chloride]",44.3 ± 11.2,44 ± 11,73,,
"COc1cc2c(cc1OC)CC(=O)N(CCCN(C)C[C@H]1Cc3cc(OC)c(OC)cc31)CC2 [Ivabradine, ivabradine hydrochloride]",,,86,31 µM and 30.9 µM,about 20%
